The text below walks through data of ChEMBL document CHEMBL1142251, “Identification of novel inhibitors of bacterial surface enzyme Staphylococcus aureus Sortase A” (Bioorg Med Chem Lett, 2008).

The structures appear in SMILES notation.

One may read the IC50 as the midpoint of a concentration-inhibition curve. A low value points to inhibition by little substance.

The target of this assay is T1, Sortase A (Staphylococcus aureus, UniProt Q9S446).
T1 sequence (Q9S446 whole entry): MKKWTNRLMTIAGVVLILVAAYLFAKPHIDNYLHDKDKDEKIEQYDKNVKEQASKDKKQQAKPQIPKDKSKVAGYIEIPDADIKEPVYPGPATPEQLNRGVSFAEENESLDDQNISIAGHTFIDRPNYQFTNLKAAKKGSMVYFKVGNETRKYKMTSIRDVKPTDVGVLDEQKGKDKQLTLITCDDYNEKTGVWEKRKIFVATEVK
The assay can be described thus: Inhibition of Staphylococcus aures sortase A by FRET assay.
On to `O=C(/C=C/c1ccco1)Nc1ccc(N2CCOCC2)c(CO)c1`, for which the IC50 is 111 µM. Consider `O=Cc1cc(NC(=O)/C=C/c2cccs2)ccc1N1CCOCC1`, for which the IC50 is 77 µM.

In turn, `COC(=O)c1cc(NC(=O)/C=C/c2cccs2)ccc1N1CCOCC1` registered an IC50 of 71 µM.

As to `O=C(/C=C/c1ccco1)Nc1ccc(N2CCOCC2)c(C(=O)O)c1`, inhibition was half-maximal at 181 µM (IC50).

As for `O=C(CCc1ccco1)Nc1ccc(N2CCOCC2)c(C(=O)O)c1`, the IC50 is above 600 µM.

In the case of `O=C(O)/C=C/C(=O)Nc1ccc(NC(=O)c2ccccc2O)cc1`, half-maximal inhibition (IC50) required 125 µM.

As for `N=C(N)N/N=C/c1ccc(/C=N/NC(=N)N)cc1`, the IC50 stood at 275 µM. In the case of `Nc1nccc(-c2ccc(NC(=O)Nc3ccc(Cl)cc3)cc2)n1`, the IC50 is 400 µM. Molecule `O=C(/C=C/c1cccs1)Nc1ccc(N2CCOCC2)c(C(=O)O)c1` displayed an IC50 of 75 µM. In turn, `COC(=O)c1cc(NC(=O)/C=C/c2ccco2)ccc1N1CCOCC1` returned an IC50 of 58 µM. Molecule `CS(=O)(=NC=C(C#N)C(=O)c1cccs1)c1ccc(Oc2ccc([N+](=O)[O-])cn2)cc1` (stereo not given) gave an IC50 of 400 µM. The same measure for `COC(=O)c1cc(NC(=O)CCc2ccco2)ccc1N1CCOCC1`: above 600 µM; for `Cc1ccc(S(=O)(=O)NC(=O)Nc2ccc(NC(=O)c3ccccc3O)cc2)cc1`: 226 µM.

As for `N#Cc1c(SCC(=O)c2ccc([N+](=O)[O-])cc2)[n-][s+]c1SCC(=O)c1ccc([N+](=O)[O-])cc1`, it took 97.3 µM to reach half-maximal inhibition (IC50). `COC(=O)c1cc(NC(=O)CCc2cccs2)ccc1N1CCOCC1` displayed an IC50 above 600 µM.

For the molecule `CS(=O)(=NC=C(C#N)C(=O)c1ccco1)c1ccc(Oc2ccc([N+](=O)[O-])cn2)cc1` (stereo not given), the IC50 turned out to be 150 µM.

In turn, `O=C(/C=C/c1cccs1)Nc1ccc(N2CCOCC2)c(CO)c1` gave an IC50 of 73 µM. Regarding `O=Cc1cc(NC(=O)/C=C/c2ccco2)ccc1N1CCOCC1`, the IC50 amounted to 107 µM. In turn, `NC(=O)c1cc(NC(=O)/C=C/c2cccs2)ccc1N1CCOCC1` had an IC50 of 105 µM. This IC50 and that of the molecule before are within 1.5-fold of each other. The same measure for `O=C(CCc1cccs1)Nc1ccc(N2CCOCC2)c(C(=O)O)c1`: above 600 µM.
